For 20 compounds, IC50 results are on record in patent publication US11332459B2 (TEIJIN PHARMA LIMITED, priority 2017, dated 2022).

Structures are written as SMILES.

The target of this test is T1, human TRPC6 (Homo sapiens, UniProt Q9Y210).
T1 construct: expressed in transfected cells
T1 sequence (Q9Y210 1-931): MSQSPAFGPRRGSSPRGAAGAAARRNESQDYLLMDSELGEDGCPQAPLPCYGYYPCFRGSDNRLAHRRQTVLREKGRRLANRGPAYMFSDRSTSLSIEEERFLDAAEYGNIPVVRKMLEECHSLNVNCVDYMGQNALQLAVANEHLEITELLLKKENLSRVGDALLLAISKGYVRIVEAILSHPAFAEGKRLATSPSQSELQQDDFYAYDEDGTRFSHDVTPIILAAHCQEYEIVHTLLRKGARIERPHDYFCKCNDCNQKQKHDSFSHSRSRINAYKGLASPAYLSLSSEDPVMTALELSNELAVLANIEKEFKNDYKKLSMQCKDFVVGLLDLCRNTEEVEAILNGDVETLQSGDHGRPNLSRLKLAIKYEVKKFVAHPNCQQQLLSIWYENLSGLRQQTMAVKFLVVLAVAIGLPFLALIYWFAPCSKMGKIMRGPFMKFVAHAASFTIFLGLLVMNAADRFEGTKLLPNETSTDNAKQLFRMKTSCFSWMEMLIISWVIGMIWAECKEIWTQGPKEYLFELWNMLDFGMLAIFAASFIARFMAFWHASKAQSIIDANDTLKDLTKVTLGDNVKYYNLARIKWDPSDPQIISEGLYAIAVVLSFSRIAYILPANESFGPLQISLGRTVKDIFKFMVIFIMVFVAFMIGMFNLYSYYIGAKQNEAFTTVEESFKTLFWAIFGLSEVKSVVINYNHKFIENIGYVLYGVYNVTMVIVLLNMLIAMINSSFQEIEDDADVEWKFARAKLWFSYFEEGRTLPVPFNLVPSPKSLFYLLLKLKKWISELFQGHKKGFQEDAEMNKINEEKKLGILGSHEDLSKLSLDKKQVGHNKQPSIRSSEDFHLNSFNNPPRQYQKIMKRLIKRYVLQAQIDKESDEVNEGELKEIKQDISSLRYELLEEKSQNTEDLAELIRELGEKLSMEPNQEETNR
In words: TRPC6 calcium flux assay (FLIPR, OAG-stimulated calcium influx). The format is cell-based. The conditions noted are these: HEK293 cells stably transfected with human TRPC6, read-out: hTRPC6 Potency. Put shortly:
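HEK293 cells stably expressing human TRPC6, loaded with calcium dye 90–120 min at RT, then given compound for 25 min before OAG (50 uM final, 0.5% DMSO) in HEPES buffer pH 7.2 with 2 mM CaCl2. Background-subtracted FLIPR peak over 180 s normalized to OAG vs buffer; IC50 from dose plot.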
On the technique in general: Calcium flux is commonly read through the fluorescence of an indicator in the cells.
In the case of `CC1(C#N)CCN(C(=O)Cn2c(N3CC[C@@H](F)[C@H](N)C3)nc3cc(F)c(F)cc32)CC1` [Example 629, 1-(2-(2-((3R,4R)-3-amino-4-fluoropiperidin-1-yl)-5,6-difluoro-1H-benzo[d]imidazol-1-yl)acetyl)-4-methylpiperidine-4-carbonitrile], the IC50 worked out at 0.158 µM.

On to `N[C@@H]1CN(c2nc3cc(F)c(F)cc3n2CC(=O)N2CCCc3cccnc32)CC[C@H]1F` [Example 630, 2-(2-((3R,4R)-3-amino-4-fluoropiperidin-1-yl)-5,6-difluoro-1H-benzo[d]imidazol-1-yl)-1-(3,4-dihydro-1,8-naphthyridin-1(2H)-yl)ethanone], for which the IC50 worked out at 0.174 µM.

As for `N[C@@H]1CN(c2nc3cc(F)c(F)cc3n2CC(=O)N(CC(F)F)C2CC2)CC[C@H]1F` [Example 631, 2-(2-((3R,4R)-3-amino-4-fluoropiperidin-1-yl)-5,6-difluoro-1H-benzo[d]imidazol-1-yl)-N-cyclopropyl-N-(2,2-difluoroethyl)acetamide], the IC50 came out at 0.225 µM.

On to `N[C@@H]1CN(c2nc3cc(F)c(F)cc3n2CC(=O)N2Cc3cccnc3C2)CC[C@H]1F` [Example 632, 2-(2-((3R,4R)-3-amino-4-fluoropiperidin-1-yl)-5,6-difluoro-1H-benzo[d]imidazol-1-yl)-1-(5H-pyrrolo[3,4-b]pyridin-6(7H)-yl)ethanone], for which the IC50 turned out to be 0.23 µM.

For `N#C[C@H]1CCCN1C(=O)Cn1c(N2CC[C@@H](F)[C@H](N)C2)nc2cc(F)c(F)cc21` [Example 636, (R)-1-(2-(2-((3R,4R)-3-amino-4-fluoropiperidin-1-yl)-5,6-difluoro-1H-benzo[d]imidazol-1-yl)acetyl)pyrrolidine-2-carbonitrile], the IC50 was found to be 0.326 µM.

Turning to `CN(C(=O)Cn1c(N2CC[C@@H](F)[C@H](N)C2)nc2cc(F)c(F)cc21)[C@H]1CC[C@H](O)CC1` [Example 637, 2-(2-((3R,4R)-3-amino-4-fluoropiperidin-1-yl)-5,6-difluoro-1H-benzo[d]imidazol-1-yl)-N-((1r,4R)-4-hydroxycyclohexyl)-N-methylacetamide], the IC50 was 0.341 µM.

In the case of `CC(c1ccccn1)N(C)C(=O)Cn1c(N2CC[C@@H](F)[C@H](N)C2)nc2cc(F)c(F)cc21` (stereo partly drawn) [Example 638, 2-(2-((3R,4R)-3-amino-4-fluoropiperidin-1-yl)-5,6-difluoro-1H-benzo[d]imidazol-1-yl)-N-methyi-N-((S)-1-(pyridin-2-yl)ethyl)acetamide], the IC50 came out at 0.425 µM.

For the compound `N[C@@H]1CN(c2nc3cc(F)c(F)cc3n2CC(=O)N2CCCC3COCCC32)CC[C@H]1F` (stereo partly drawn) [Example 639, 2-(2-((3R,4R)-3-amino-4-fluoropiperidin-1-yl)-5,6-difluoro-1H-benzo[d]imidazol-1-yl)-1-(octahydro-1H-pyrano[4,3-b]pyridin-1-yl)ethanone], the IC50 was 0.657 µM.

Consider `N[C@@H]1CN(c2nc3cc(F)c(F)cc3n2CC(=O)N2CCC(O)CC2)CC[C@H]1F` [Example 640, 2-(2-((3R,4R)-3-amino-4-fluoropiperidin-1-yl)-5,6-difluoro-1H-benzo[d]imidazol-1-yl)-1-(4-hydroxypiperidin-1-yl)ethanone], for which the IC50 was determined as 0.809 µM.

`N[C@@H]1CN(c2nc3cc(F)c(F)cc3n2CC(=O)N2CC(n3cncn3)C2)CC[C@H]1F` [Example 641, 1-(3-(1H-1,2,4-triazol-1-yl)azetidin-1-yl)-2-(2-((3R,4R)-3-amino-4-fluoropiperidin-1-yl)-5,6-difluoro-1H-benzo[d]imidazol-1-yl)ethanone]: the IC50 stood at 1.28 µM.

Take `N[C@@H]1CN(c2nc3cc(F)c(F)cc3n2CC(=O)N2CCN3C(=O)NCC3C2)CC[C@H]1F` (stereo partly drawn) [Example 642, 7-(2-(2-((3R,4R)-3-amino-4-fluoropiperidin-1-yl)-5,6-difluoro-1H-benzo[d]imidazol-1-yl)acetyl)hexahydroimidazo [1,5-a]pyrazin-3(2H)-one]: the IC50 came out at 1.65 µM.

As for `N#CCCN(CC1CCOC1)C(=O)Cn1c(N2CC[C@@H](F)[C@H](N)C2)nc2cc(F)c(F)cc21` (stereo partly drawn) [Example 643, 2-(2-((3R,4R)-3-amino-4-fluoropiperidin-1-yl)-5,6-difluoro-1H-benzo[d]imidazol-1-yl)-N-(2-cyanoethyl)-N-((tetrahydrofuran-3-yl)methyl)acetamide], the IC50 was determined as 1.82 µM.

With `CNC(=O)C1CN(C(=O)Cn2c(N3CC[C@@H](F)[C@H](N)C3)nc3cc(F)c(F)cc32)CCO1` (stereo partly drawn) [Example 644, 4-(2-(2-((3R,4R)-3-amino-4-fluoropiperidin-1-yl)-5,6-difluoro-1H-benzo[d]imidazol-1-yl)acetyl)-N-methylmorpholine-2-carboxamide], the IC50 stood at 1.91 µM.

Take `CS(=O)(=O)CC1CCN(C(=O)Cn2c(N3CC[C@@H](F)[C@H](N)C3)nc3cc(F)c(F)cc32)C1` (stereo partly drawn) [Example 645, 2-(2-((3R,4R)-3-amino-4-fluoropiperidin-1-yl)-5,6-difluoro-1H-benzo[d]imidazol-1-yl)-1-(3-((methylsulfonyl)methyl)pyrrolidin-1-yl)ethanone]: the IC50 was 2.3 µM.

For the compound `N[C@@H]1CN(c2nc3cc(F)c(F)cc3n2CC(=O)N2CCn3ncnc3C2)CC[C@H]1F` [Example 646, 2-(2-((3R,4R)-3-amino-4-fluoropiperidin-1-yl)-5,6-difluoro-1H-benzo[d]imidazol-1-yl)-1-(5,6-dihydro-[1,2,4]triazolo[1,5-a]pyrazin-7(8H)-yl)ethanone], the IC50 was 2.31 µM.

Take `CC1(O)CCN(C(=O)Cn2c(N3CC[C@@H](F)[C@H](N)C3)nc3cc(F)c(F)cc32)C1` (stereo partly drawn) [Example 648, 2-(2-((3R,4R)-3-amino-4-fluoropiperidin-1-yl)-5,6-difluoro-1H-benzo[d]imidazol-1-yl)-1-(3-hydroxy-3-methylpyrrolidin-1-yl)ethanone]: the IC50 came out at 3.35 µM.

`CS(=O)(=O)N1CCN(C(=O)Cn2c(N3CC[C@@H](F)[C@H](N)C3)nc3cc(F)c(F)cc32)CC1` [Example 649, 2-(2-((3R,4R)-3-amino-4-fluoropiperidin-1-yl)-5,6-difluoro-1H-benzo[d]imidazol-1-yl)-1-(4-(methylsulfonyl)piperazin-1-yl)ethanone]: the IC50 was > 3.75 µM.

`CN(C(=O)Cn1c(N2CC[C@@H](F)[C@H](N)C2)nc2cc(F)c(F)cc21)C1CCS(=O)(=O)CC1` [Example 651, 2-(2-((3R,4R)-3-amino-4-fluoropiperidin-1-yl)-5,6-difluoro-1H-benzo[d]imidazol-1-yl)-N-(1,1-dioxidotetrahydro-2H-thiopyran-4-yl)-N-methylacetamide]: the IC50 was > 3.75 µM.

As for `CC(C)(C#N)C1CCN(C(=O)Cn2c(N3CC[C@@H](F)[C@H](N)C3)nc3cc(F)c(F)cc32)CC1` [Example 653, 2-(1-(2-(2-((3R,4R)-3-amino-4-fluoropiperidin-1-yl)-5,6-difluoro-1H-benzo[d]imidazol-1-yl)acetyl)piperidin-4-yl)-2-methylpropanenitrile], the IC50 was > 3.75 µM.

For the compound `CNC(=O)C1CCCN(C(=O)Cn2c(N3CC[C@@H](F)[C@H](N)C3)nc3cc(F)c(F)cc32)C1` (stereo partly drawn) [Example 654, 1-(2-(2-((3R,4R)-3-amino-4-fluoropiperidin-1-yl)-5,6-difluoro-1H-benzo[d]imidazol-1-yl)acetyl)-N-methylpiperidine-3-carboxamide], the IC50 is > 3.75 µM.
